From patent US20230226198A1, “Artemisinin Derivatives” (DA ZEN THERANOSTICS, INC., priority 2019, published 2023)
Where two headings read alike, the source gives them in different places.

Tests used:
[1] = test system: C4-2B MDVR cells; assay: Seahorse XF mitochondrial function (OCR/ECAR); format: cell-based, human; conditions: 5 uM, over 12 hours
Protocol: Example 5 C: To determine mitochondrial function of cancer cells (here C4-2B MDVR), the cells are treated with vehicle, DZ (5 uM), DHA (5 uM), and DZ-003 (5 uM) over 12 hours, and the oxygen consumption rate (OCR) from respiration and extracellular acidification rate (ECAR) from glycolysis of the live cells is determined in a metabolic chamber in a 24-well plate format using a Seahorse XF analyzer (Seahorse XFe24, Agilent, Calif.). Reagents (drugs/controls) are added to the wells just before start of the recording at time 0, and the effect of the drugs on the basal mitochondrial function is recorded by the analyzer for about 12 hours (720 minutes). All reagents used are Agilent reagents. Cells are seeded and cultured in Seahorse XF RPMI Medium, pH 7.4. The seeding rate is 8×10^5 for the cells to reach about 90% confluency within about 24 hours when the analysis is started. The protocol is essentially performed as per the standard protocol of the manufacturer, removing the medium, washing the cells once with XF Real-Time ATP Rate Assay Medium, then starting the measurement as per the instrument's pre-programming and subsequent real-time measurements of OCAR/ECAR. Preliminary experiments indicate that the THAD as described herein may have an increased effect compared to DZ3a.

[2] = test system: Caki-1 cells (human clear cell renal cell carcinoma cells); assay: MTT cell viability / IC50 assay, Caki-1; format: cell-based
Protocol: (§1) Cell culture: In the following examples, unless otherwise specified, all cell lines are purchased from American Type Culture Collection and cultured in American Type Culture Collection (ATCC)-recommended media, with fetal bovine serum (FBS) to a final concentration of 10% and 1× penicillin/streptomycin at 37° C. with 5% CO2 in a cell culture incubator, unless otherwise specified. Unless otherwise specified, culture is 2D. Where culture is 3D, low attachment plates are used, with the same media. C4-2B (ATCC® CRL-3315™, human prostate cancer cells of epithelial morphology) parental cell line and drug-resistant cells derived therefrom) are cultured in RPMI-1640 with 10% FBS. MDVR cells (an Enzalutamide-resistant variety of C4-2B prostate cancer cells formed as described below) are cultured as indicated for the parental C4-2B cells. Caki-1 cells (human clear cell renal cell carcinoma cells) are cultured in ATCC-formulated McCoy's 5a Medium Modified (ATCC Catalog No. 30-2007) with 10% FBS. PC3 cells (ATCC® CRL-1435™, a human prostate cancer cell line of epithelial morphology initiated from a bone metastasis of a grade IV prostatic adenocarcinoma) are cultured in F-12K with 10% FBS. 22RV1 Prostate Cancer (PC) cells (ATCC® CRL-2505™, a human prostate carcinoma cell line of epithelial morphology) are cultured in RPMI-1640 with 10% FBS. DU145 cells (ATCC® HTB-81™, a human cell line derived from a prostate-originating brain metastase, not detectably hormone sensitive, not expressing prostate antigen; forms adenocarcinoma grade II in nude mice) are cultured in ATCC-formulated Eagle's Minimum Essential Medium (EMEM, Catalog No. 30-2003). H446 cells (ATCC® HTB-171™, a human small cell carcinoma SC lung cancer (SCLC) cell line derived from a metastatic site) are cultured in RPMI-1640 with 10% FBS. H358 cells (ATCC® CRL-5807™, a human non-small cell lung cancer (NSCLC) cell line that expresses protein and RNA of SP-A, the major lung surfactant associated protein, and produces tumors in athymic nude mice) are cultured in RPMI-1640 Medium with 10% FBS. BxPC3 cells (ATCC® CRL-1687™, an adenocarcinoma-derived pancreatic cancer cell line that expresses pancreas cancer specific antigen and carcinoembryonic antigen and forms tumors in nude mice) are cultured in RPMI-1640 with 10% FBS.
Example 1: A cell assay is performed exposing cells cultured as described above to various drugs indicated below for 24 hours unless otherwise indicated. Each of the cell lines is treated either with a THAD (e.g. DZ-DHA-ether, MI-148-bis-DHA), or for comparison, with the DHA mono-ester “DZ-DHA”; alternatively/additionally, DZ1 and/or unconjugated DHA may serve as comparants. For each cell line, the IC50 is determined for each drug in concentrations from 0 to 100 μM. […] In the controls (not shown in the figures), the cells are exposed to DMSO (vehicle) for a final concentration that equals the highest concentration of the drug tested, to a maximum concentration less than 0.1% v/v. 4 hours before culture end/SDS addition, 10 μL MTT (3-(4,5-Dimethyl-2-thiazolyl)-2,5-diphenyl-2H-tetrazolium bromide, Sigma-Aldrich) is added to wells containing the cells. At the end of culture, 100 μl 10% SDS is added and then the plate containing the cells is placed in a 37° C. cell culture incubator for 8 hours. The absorbance density of the supernatant is read on a 96-well microplate reader at wavelength 595 nm. The results of Caki-1 and MDRV are indicated in the table below along with preliminary results for further cancer cell lines (including, e.g., C4-2B, Abi-R, PC3, 22Rv1, DU145, H358, H446, BxPC3), and the corresponding curves are shown in FIG. 2A (Caki-1) and FIG. 2B (MDVR).

[3] = test system: MDVR cells (Enzalutamide-resistant C4-2B prostate cancer cells); assay: MTT cell viability / IC50 assay, MDVR; format: cell-based; conditions: Homo sapiens
Protocol: as §1
Resistant prostate cancer cell lines MDVR and AbiR: MDVR cells are Enzalutamide-resistant cells, AbiR are Abiraterone acetate resistant cells, formed from parental C4-2B prostate cancer cells as follows. A cell assay is performed exposing cells cultured as described above to various drugs indicated below for 72 hours. Parental C4-2B cells are C4-2B non-resistant cells not previously exposed to cancer drugs. Drug-resistant C4-2B cells are created by prolonged exposure to the relevant drug, i.e. Enzalutamide for MDVR, and Abiraterone acetate for AbiR cells, at initially sub-lethal and gradually increasing concentrations until resistance is achieved.
Example 1: A cell assay is performed exposing cells cultured as described above to various drugs indicated below for 24 hours unless otherwise indicated. Each of the cell lines is treated either with a THAD (e.g. DZ-DHA-ether, MI-148-bis-DHA), or for comparison, with the DHA mono-ester “DZ-DHA”; alternatively/additionally, DZ1 and/or unconjugated DHA may serve as comparants. For each cell line, the IC50 is determined for each drug in concentrations from 0 to 100 μM. […] In the controls (not shown in the figures), the cells are exposed to DMSO (vehicle) for a final concentration that equals the highest concentration of the drug tested, to a maximum concentration less than 0.1% v/v. 4 hours before culture end/SDS addition, 10 μL MTT (3-(4,5-Dimethyl-2-thiazolyl)-2,5-diphenyl-2H-tetrazolium bromide, Sigma-Aldrich) is added to wells containing the cells. At the end of culture, 100 μl 10% SDS is added and then the plate containing the cells is placed in a 37° C. cell culture incubator for 8 hours. […]

[4] = test system: L858R/T790M EGFR versus wild-type EGFR; conditions: inhibiting phosphorylation of EGFR in cell lines; cited from earlier work
[5] = Caki-1, 24 hours, relative IC50, read-out: IC50
[6] = Caki-1, unit inferred, read-out: IC50 (FIG. 2A description)
[7] = ENZ-resistant C4-2B cells (MDVR), unit inferred, read-out: IC50 (FIG. 2B description)
[8] = MDVR, 24 hours, relative IC50, read-out: IC50

SMILES	lowering of OCR (in words) [1]	IC50 [2, 5] [nM]	IC50 [2, 6] [nM]	IC50 [3, 7] [nM]	IC50 [3, 8] [nM]	potency against L858R/T790M relative to wild-type EGFR [4]
CC1(C)C(/C=C/C2=C(Cl)C(=C/C=C3/N(CCCCCC(=O)O)c4ccccc4C3(C)C)/CCC2)=[N+](CCCCS(=O)(=O)[O-])c2ccccc21 [DZ1]	drop much less	–	–	–	–	–
C[C@@H]1CC[C@H]2[C@@H](C)C(OCCNC(=O)CCCCCN3/C(=C/C=C4\CCCC(/C=C/C5=[N+](CCCCS(=O)(=O)[O-])c6ccccc6C5(C)C)=C4Cl)C(C)(C)c4ccccc43)O[C@@H]3O[C@]4(C)CC[C@@H]1[C@]32OO4 (stereo partly shown) [DZ-DHA-ether]	–	1420	500 to 1500	3470	< 3470	–
C[C@@H]1CC[C@H]2[C@@H](C)C(OC(=O)CCCCCN3/C(=C/C=C4\CCCC(/C=C/C5=[N+](CCCCCC(=O)OC6O[C@@H]7O[C@]8(C)CC[C@H]9[C@H](C)CC[C@@H]([C@H]6C)[C@@]79OO8)c6ccccc6C5(C)C)=C4Cl)C(C)(C)c4ccccc43)O[C@@H]3O[C@]4(C)CC[C@@H]1[C@]32OO4 (stereo partly shown) [MHI-148-bis-DHA]	–	710	500 to 1500	< 1000	860	–
C=CC(=O)Nc1cc(Nc2nccc(-c3cn(C)c4ccccc34)n2)c(OC)cc1N(C)CCN(C)C [Osimertinib]	–	–	–	–	–	100-200 times
